Tests used:
U937 cells = experiment: Cell viability by trypan blue exclusion after electroporation (250 V, 400 F) and 14 min irradiation; type: cell-based; conditions: for Total dead cells for exp. / Dead cells by pulse / Dead cells by light for control: 1 × 10^−5 M agent, 18–22 C; for Total dead cells for exp. / Dead cells by pulse / Dead cells by light for control / Final dead cells: exp/control: U937 cells; for Total dead cells for exp.: pulse 250 V plus 14 min irradiation; for Dead cells by pulse: single pulse 250 V (1.2 kV/cm), 400 F, 11–12 ms, 14 min irradiation; for Dead cells by light for control: unpulsed control, irradiated 14 min; for Final dead cells: exp/control: ratio of total dead cells (pulse + light) to dead cells by light only, 1 × 10^−5 M
[1] = type 1 photoreaction; cited from earlier work

SMILES | Total dead cells for exp. (U937 cells) [%] | Dead cells by pulse (U937 cells) [%] | Dead cells by light for control (U937 cells) [%] | Final dead cells: exp/control (U937 cells) | penetration and dark effect (without irradiation) (U937 cells; unpulsed U937 cells, without irradiation) | rate constant of oxidizing guanosine [1] [M⁻¹ s⁻¹]
COc1cccc2c1C(=O)c1c(O)c3c(c(O)c1C2=O)C[C@@](O)(C(C)=O)C[C@@H]3O[C@H]1C[C@H](N)[C@H](O)[C@H](C)O1 [DAM, daunomycin] | 87.5 | 63.4 | 17.6 | 4.9 | increases with time | –
C=CC1=C(C)c2cc3[nH]c(cc4nc(cc5[nH]c(cc1n2)c(C)c5CCC(=O)O)C(CCC(=O)O)=C4C)c(C)c3C=C [PP, protoporphyrin] | 91.6 | 65.8 | 18.8 | 4.9 | – | –
CN(C)c1ccc2cc3ccc(=[N+](C)C)cc-3sc2c1.[Cl-] [TP, thiopyronin] | 98.6 | 80.3 | 20.1 | 4.9 | – | 3.8e+06

Source: US7181271B2, “Synergism of photodynamic and electropermeation effect on cell vitality as a novel cytotoxic agent” (Genetronics, Inc., priority 2003, dated 2007)
